# Assay results from patent US5493008A, “Two non-contiguous regions contribute to nidogen binding to a single EGF-like motif of the laminin γ1 chain” (The University Of Virginia Patent Foundation, priority 1994, dated 1996).
# Where two headings read alike, the source gives them in different places. Where a SMILES comes first, the peptide text is derived from it. Where no end group is shown, it is not given here.
# Molecular target: T1, nidogen (Mus musculus, UniProt P10493)
# T1 sequence (P10493 29-1245): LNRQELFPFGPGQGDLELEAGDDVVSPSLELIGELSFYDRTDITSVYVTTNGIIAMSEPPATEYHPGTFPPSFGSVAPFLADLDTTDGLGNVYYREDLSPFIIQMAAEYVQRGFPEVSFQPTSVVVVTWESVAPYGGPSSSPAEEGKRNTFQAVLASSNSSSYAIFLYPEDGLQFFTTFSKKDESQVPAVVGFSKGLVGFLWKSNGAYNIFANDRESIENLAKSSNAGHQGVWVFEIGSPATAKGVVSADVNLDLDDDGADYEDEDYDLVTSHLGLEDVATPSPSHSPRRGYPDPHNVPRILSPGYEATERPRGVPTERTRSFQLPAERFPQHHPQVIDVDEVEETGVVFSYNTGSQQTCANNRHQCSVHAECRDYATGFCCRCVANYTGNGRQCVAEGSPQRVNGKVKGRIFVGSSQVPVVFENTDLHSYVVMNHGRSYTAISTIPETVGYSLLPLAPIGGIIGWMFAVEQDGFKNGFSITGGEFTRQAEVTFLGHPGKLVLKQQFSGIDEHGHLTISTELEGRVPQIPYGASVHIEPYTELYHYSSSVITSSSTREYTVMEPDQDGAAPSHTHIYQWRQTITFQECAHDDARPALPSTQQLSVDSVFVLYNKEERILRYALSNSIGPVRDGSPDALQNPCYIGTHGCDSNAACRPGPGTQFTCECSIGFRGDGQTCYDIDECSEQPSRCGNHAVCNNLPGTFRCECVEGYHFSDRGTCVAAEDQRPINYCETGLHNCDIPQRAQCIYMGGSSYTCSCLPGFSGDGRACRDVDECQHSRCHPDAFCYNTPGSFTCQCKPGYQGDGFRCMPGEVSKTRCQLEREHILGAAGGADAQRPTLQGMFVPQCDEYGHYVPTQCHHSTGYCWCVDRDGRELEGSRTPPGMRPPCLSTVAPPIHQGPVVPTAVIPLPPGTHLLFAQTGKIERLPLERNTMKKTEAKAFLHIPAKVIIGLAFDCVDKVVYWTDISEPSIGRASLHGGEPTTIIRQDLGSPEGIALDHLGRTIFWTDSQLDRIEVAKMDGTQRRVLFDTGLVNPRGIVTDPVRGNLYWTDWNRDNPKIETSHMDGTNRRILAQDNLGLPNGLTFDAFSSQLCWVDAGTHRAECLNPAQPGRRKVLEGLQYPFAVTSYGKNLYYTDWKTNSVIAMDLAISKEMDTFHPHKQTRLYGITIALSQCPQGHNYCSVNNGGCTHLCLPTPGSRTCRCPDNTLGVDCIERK
# Assay: Radioligand competition assay: inhibition of 125I-laminin fragment P1 binding to nidogen
# Settings: for IC50 higher / less active than fragment P1: relative to laminin fragment P1; for higher inhibitory activity compared with loop a,b: relative to synthetic loop a,b peptide; for inhibitory activity in words: laminin-nidogen binding competition
# Procedure: A radioligand competition assay was used for measurement of relative binding affinities (Mann K. et al. (1988), Eur. J. Biochem., 178, 71-80; Fox, J. W. et al. (1991), EMBO J., 10, 3137-3146). A fixed concentration of recombinant nidogen (0.2 nM) was incubated overnight at 4° C. with inhibitors at varying concentrations, followed by the addition of ^125 I-labeled laminin fragment P1 (0.01 nM; 10,000-20,000 c.p.m.) for the same incubation period. Bound and non-bound fragment P1 was then separated by antibodies against nidogen. Competitor concentrations causing 50% inhibition (IC50) were determined from dose-response profiles. […] IC50 values compared from different assays were normalized to a single fragment P1 value.
# [1] = Table II, synthetic loops of EGF-like repeat 4 and smaller synthetic and proteolytic fragments, read-out: IC50 (inhibitory capacity)
# [2] = Table IV, recombinant mutants and chimeric structures of γ1III4, read-out: IC50 (inhibitory activity for laminin-nidogen binding)
# [3] = Table III, amino acid replacements in heptapeptide NIDPNAV, read-out: IC50 (inhibitory capability for laminin-nidogen binding)
compound,measurement,setting,value
NIDPNAVGN [NIDPNAVGN],IC50,[1],600 nM
same,IC50,read-out: IC50,600 nM
"γ1III3ab4cd: recombinant chimera: loop a,b of repeat 3 with loop c,d of repeat 4 (PCPCPGGSSCAIVPKTKEVVCTHCIYNTAGFYCDRCKEGFFGNPLAPNPADKCK)",IC50,[2],1100 nM
"γ1III4: recombinant nidogen binding EGF-like repeat 4 of laminin γ1 chain domain III, 56 residues [reference compound]",IC50,[2],0.05 nM
same,IC50,read-out: IC50,0.05 nM
"CC[C@H](C)[C@H](NC(=O)[C@H](CC(N)=O)NC(=O)[C@H](CC(=O)O)NC(=O)[C@H](CC(N)=O)NC(=O)[C@H](CS)NC(=O)[C@H](CCC(N)=O)NC(=O)[C@H](CS)NC(=O)[C@@H]1CCCN1)C(=O)N[C@@H](CC(=O)O)C(=O)N1CCC[C@H]1C(=O)N[C@@H](CC(N)=O)C(=O)N[C@@H](C)C(=O)N[C@H](C(=O)NCC(=O)N[C@@H](CC(N)=O)C(=O)N[C@@H](CS)C(=O)N[C@@H](CC(N)=O)C(=O)N[C@@H](CCCNC(=N)N)C(=O)N[C@@H](CC(C)C)C(=O)N[C@H](C(=O)NCC(=O)N[C@@H](CCC(=O)O)C(=O)N[C@@H](CS)C(=O)N[C@@H](CC(C)C)C(=O)O)[C@@H](C)O)C(C)C [loop a,b, non-oxidized] (H-PCQCNDNIDPNAVGNCNRLTGECL-OH; N-terminus and C-terminus assumed)",IC50 higher / less active than fragment P1,,"5,000 fold"
"γ1III4ab3cd: recombinant chimera: loop a,b of repeat 4 with loop c,d of repeat 3 (PCQCNDNIDPNAVGNCNRLTGECLKCPTGTAGKRCELCDDGYFGDPLGSNGPVRLCR)",IC50,[2],80 nM
same,further decrease in activity,"loop c replaced by loop c of a non-binding repeat, relative to the Tyr819 modification",30 fold
same,IC50,read-out: IC50,80 nM
same,"higher inhibitory activity compared with loop a,b",,3 fold
γ1III4Y819/825-A: recombinant γ1III4 with Tyr819 and Tyr825 mutated to Ala,IC50,[2],1.5 nM
same,decrease in activity after reduction and alkylation,reduced and alkylated under denaturing conditions versus disulfide-bonded form,~ 300 fold
"LTGECL [T2, LTGECL]",IC50,[1],12000 nM
NVDPSAV [NVDPSAV],IC50,[3],> 180000 nM
"CC(C)C[C@@H]1NC(=O)[C@@H]2CCCN2C(=O)[C@H](CC(N)=O)NC(=O)CNC(=O)[C@H](Cc2ccccc2)NC(=O)[C@H](Cc2ccccc2)NC(=O)CNC(=O)[C@H](CCC(=O)O)NC(=O)[C@H](CCCCN)NC(=O)[C@@H](NC(=O)[C@@H](N)CCCNC(=N)N)CSSC[C@@H](C(=O)N[C@@H](CCCCN)C(=O)O)NC(=O)[C@H](CCCCN)NC(=O)[C@H](CC(=O)O)NC(=O)[C@H](C)NC(=O)[C@@H]2CCCN2C(=O)[C@H](CC(N)=O)NC(=O)[C@@H]2CCCN2C(=O)[C@H](C)NC1=O [loop d, oxidized] (HELM PEPTIDE1{R.C.K.E.G.F.F.G.N.P.L.A.P.N.P.A.D.K.C.K}$PEPTIDE1,PEPTIDE1,2:R3-19:R3$$$V2.0; N-terminus and C-terminus assumed)",IC50,[1],> 90000 nM
same,inhibitory activity in words,,No inhibitory activity
same,IC50,read-out: IC50,90000 to 200000 nM
γ1III4Y819-A: recombinant γ1III4 with Tyr819 mutated to Ala,IC50,[2],3 nM
"CC[C@H](C)[C@@H]1NC(=O)[C@@H](NC(=O)[C@@H](N)CCCCN)CSSC[C@@H](C(=O)N[C@@H](CC(=O)O)C(=O)O)NC(=O)[C@H](Cc2ccc(O)cc2)NC(=O)[C@H](Cc2ccccc2)NC(=O)CNC(=O)[C@H](C)NC(=O)[C@H]([C@@H](C)O)NC(=O)[C@H](CC(N)=O)NC(=O)[C@H](Cc2ccc(O)cc2)NC1=O [loop c, oxidized] (HELM PEPTIDE1{K.C.I.Y.N.T.A.G.F.Y.C.D}$PEPTIDE1,PEPTIDE1,2:R3-11:R3$$$V2.0)",IC50,[1],> 200000 nM
same,IC50,read-out: IC50,90000 to 200000 nM
"γ1III4Y819/825-A, reduced: γ1III4Y819/825-A reduced and alkylated under denaturing conditions",IC50,[2],430 nM
γ1III4N802-S: recombinant γ1III4 with Asn802 mutated to Ser,reduction in activity of mutant,relative to wild-type γ1III4,"~ 100,000 fold"
NIDPNA [NIDPNA],IC50,[1],> 460000 nM
"CC[C@H](C)[C@@H]1NC(=O)[C@@H](NC(=O)[C@H](CCCCN)NC(=O)[C@H](CC(C)C)NC(=O)[C@@H]2CSSC[C@H](NC(=O)[C@@H](N)CCC(N)=O)C(=O)N[C@@H](CC(N)=O)C(=O)N[C@@H](CC(=O)O)C(=O)N[C@@H](CC(N)=O)C(=O)N[C@@H]([C@@H](C)CC)C(=O)N[C@@H](CC(=O)O)C(=O)N3CCC[C@H]3C(=O)N[C@@H](CC(N)=O)C(=O)N[C@@H](C)C(=O)N[C@@H](C(C)C)C(=O)NCC(=O)N2)CSSC[C@@H](C(=O)N[C@@H](CC(=O)O)C(=O)O)NC(=O)[C@H](Cc2ccc(O)cc2)NC(=O)[C@H](Cc2ccccc2)NC(=O)CNC(=O)[C@H](C)NC(=O)[C@H]([C@@H](C)O)NC(=O)[C@H](CC(N)=O)NC(=O)[C@H](Cc2ccc(O)cc2)NC1=O [loop a,c, oxidized, QCNDNIDPNAVGCLKC1YNTAGFYCD] (HELM PEPTIDE1{Q.C.N.D.N.I.D.P.N.A.V.G.C.L.K.C.I.Y.N.T.A.G.F.Y.C.D}$PEPTIDE1,PEPTIDE1,2:R3-13:R3|PEPTIDE1,PEPTIDE1,16:R3-25:R3$$$V2.0; N-terminus and C-terminus assumed)",IC50 higher / less active than fragment P1,,300 fold
same,"higher inhibitory activity compared with loop a,b",,20 fold
γ1III4Y825-A: recombinant γ1III4 with Tyr825 mutated to Ala,IC50,[2],0.06 nM
same,inhibitory activity in words,,without significant effect on inhibitory activity
"CC[C@H](C)[C@@H]1NC(=O)[C@H](CC(N)=O)NC(=O)[C@H](CC(=O)O)NC(=O)[C@H](CC(N)=O)NC(=O)[C@@H]2CSSC[C@@H](C(=O)N[C@@H](CC(C)C)C(=O)O)NC(=O)[C@H](CCC(=O)O)NC(=O)CNC(=O)[C@H]([C@@H](C)O)NC(=O)[C@H](CC(C)C)NC(=O)[C@H](CCCNC(=N)N)NC(=O)[C@H](CC(N)=O)NC(=O)[C@H](CSSC[C@H](NC(=O)[C@@H]3CCCN3)C(=O)N[C@@H](CCC(N)=O)C(=O)N2)NC(=O)[C@H](CC(N)=O)NC(=O)CNC(=O)[C@H](C(C)C)NC(=O)[C@H](C)NC(=O)[C@H](CC(N)=O)NC(=O)[C@@H]2CCCN2C(=O)[C@H](CC(=O)O)NC1=O [loop a,b, oxidized] (HELM PEPTIDE1{P.C.Q.C.N.D.N.I.D.P.N.A.V.G.N.C.N.R.L.T.G.E.C.L}$PEPTIDE1,PEPTIDE1,2:R3-16:R3|PEPTIDE1,PEPTIDE1,4:R3-23:R3$$$V2.0)",IC50,read-out: IC50,400 nM
NVDPSAS [NVDPSAS],IC50,[3],> 290000 nM
"γ1III4D800,N: recombinant γ1III4 with Asp800 mutated to Asn",IC50,[2],1000 nM
"AVGNCNR [Th1, AVGNCNR]",IC50,[1],> 30000 nM
same,inhibitory activity in words,,inactive
NVDPNAS [NVDPNAS],IC50,[3],> 160000 nM
NIDPNAV [NIDPNAV],IC50,[1],800 nM
same,IC50,read-out: IC50,800 nM
IDPNAVGN [IOPNAVGN],IC50,[1],1600 nM
"NC(=O)CC[C@H](NC(=O)[C@H](CS)NC(=O)[C@@H]1CCCN1)C(=O)N[C@@H](CS)C(=O)N[C@@H](CC(N)=O)C(=O)O [E3, PCQCN] (H-PCQCN-OH; N-terminus assumed)",IC50,[1],> 96000 nM
same,inhibitory activity in words,,inactive
"CC(C)C[C@H](NC(=O)[C@H](CS)NC(=O)[C@H](CCC(=O)O)NC(=O)CNC(=O)[C@@H](NC(=O)[C@H](CC(C)C)NC(=O)[C@H](CCCNC(=N)N)NC(=O)[C@H](CC(N)=O)NC(=O)[C@H](CS)NC(=O)[C@H](CC(N)=O)NC(=O)CNC(=O)[C@@H](NC(=O)[C@H](C)NC(=O)[C@H](CC(N)=O)NC(=O)[C@@H]1CCCN1C(=O)[C@@H](N)CC(=O)O)C(C)C)[C@@H](C)O)C(=O)O [E2, DPNAVGNCNRLTGECL] (H-DPNAVGNCNRLTGECL-OH; C-terminus assumed)",IC50,[1],3000 nM
